From patent publication US20040072851A1, “Medicinal compositions for treating lower uropathy” (priority 2001, published 2004)
Structures can show the parent of a compound that is named as a salt.

Key:
[1] = test system: patients suffering from lower urinary tract symptoms; assay: Clinical test to patients suffering from lower urinary tract symptoms (four-week test); assay type: in vivo, human; details: for Total score for subjective symptoms after the test: 0.2 mg capsule orally once daily after breakfast; for Changing Rate (%) of total score for subjective symptoms: 0.2 mg capsule orally once daily, after vs before the test
Method: A clinical test was carried out under the following conditions using the patients suffering from lower urinary tract symptoms. (cf. Chapter 1: Indexes for Evaluation of Prostatic Hypertrophy in “Guideline for Clinical Test for Urinary Disturbance” published by Iyaku Tosho Shuppan) Subjects: four patients diagnosed as lower urinary tract symptoms, i.e. urinary disturbance without clear organic or neurological abnormality in lower urinary tract (3 males and 1 female). Test drug and administering method: One capsule containing 0.2 mg of tamsulosin hydrochloride was orally administered once daily after breakfast. Test period: four weeks (28 days) Observed items: Evaluations and measurements were made for the following items before and after the administration. (1) Total Score for Subjective Symptoms Questioning was done to the patients for the following items and the total score was obtained. (2) QOL Index With regard to an index for quality of life (QOL), a questioning that “How do you think if the present urinary condition continues in future as well?” was done as a total diagnosis concerning the urinary disturbance and any of the following evaluations was collected.

[2] = test system: patients suffering from lower urinary tract symptoms; assay: Clinical test to patients suffering from lower urinary tract symptoms (twelve-week test); assay type: in vivo, human
Method: A clinical test was carried out under the following conditions using the patients suffering from lower urinary tract symptoms. Subjects: eighteen patients diagnosed as lower urinary tract symptoms, i.e. urinary disturbance without clear organic or neurological abnormality in lower urinary tract (15 males and 3 female, age: 57.2±14.2). Test drug and administering method: One capsule containing 0.2 mg of tamsulosin hydrochloride was orally administered once daily after breakfast for four weeks and, after that, the dose after 4 weeks was controlled in consideration of the following criterion, and the dose was orally administered once daily after breakfast. [table] Test period: twelve weeks (84 days)(4 weeks (28 days) for 8 males) Observed items: Evaluations and measurements were made for the following items before and after the administration. (1) Total Score for Subjective Symptoms Total scores for the following <1>˜<7>before and after the administration were obtained in the same way as in Test Example 1. <1>Feel of residual urine, <2>Urination within two hours, <3>Break of urinary stream, <4>Urgency, <5>Force of urinary stream, <6>Straining upon urination and <7>Frequency of urination at night. (2) QOL Index “How do you think if the present urinating state continues in future as well?” (3) Test on Functions <1>maximum urinary stream rate <2>average urinary stream rate

[3] = test system: neurogenic bladder; details: applicant's earlier filing PCT/JP99/03343; cited from earlier work
[4] = avg. of four patients, four weeks
[5] = Female (n = 3), after 4 week, 0.2 mg/day orally
[6] = Female (n = 3), after 12 week, 0.2 mg/day for 4 weeks, then 0.2 or 0.4 mg/day orally
[7] = Total (n = 10), after 12 week, 0.2 mg/day for 4 weeks, then 0.2 or 0.4 mg/day orally
[8] = Total (n = 18), after 4 week, 0.2 mg/day orally
[9] = male (n = 7), after 12 week, 0.2 mg/day for 4 weeks, then 0.2 or 0.4 mg/day orally
[10] = male (n = 15), after 4 week, 0.2 mg/day orally

CCOc1ccccc1OCCN[C@H](C)Cc1ccc(OC)c(S(N)(=O)=O)c1 [tamsulosin hydrochloride]
Total score for subjective symptoms after the test [1, 4]: 13.3 | Changing Rate (%) of total score for subjective symptoms [1, 4]: −40.8% | Improvement in QOL index ([1]; four patients, average, after vs before administration, four weeks): improvement of one point in average | QOL index, mean value after the administration ([1]; four patients, 0.2 mg orally once daily, four weeks, scale 0 (quite satisfactory) to 6 (quite unsatisfactory), before administration 4.8): 3.8 | Overall conclusion on efficacy (total score for subjective symptom, QOL index) ([1]; four-week test, 0.2 mg orally once daily): confirmed to be effective as a therapeutic agent for lower urinary tract symptoms | Total score for subjective symptoms after the test ([1]; patient four, four weeks): 13 | Changing Rate (%) of total score for subjective symptoms ([1]; patient four, four weeks): −48.0% | Total score for subjective symptoms after the test ([1]; patient one, four weeks): 11 | Changing Rate (%) of total score for subjective symptoms ([1]; patient one, four weeks): −26.7% | Total score for subjective symptoms after the test ([1]; patient three, four weeks): 20 | Changing Rate (%) of total score for subjective symptoms ([1]; patient three, four weeks): −23.1% | Total score for subjective symptoms after the test ([1]; patient two, four weeks): 9 | Changing Rate (%) of total score for subjective symptoms ([1]; patient two, four weeks): −65.4% | Changing Amt of Average urinary stream rate [2, 5]: +2.2 ± 1.8 ml/s | Changing Amt of Maximum urinary stream rate [2, 5]: +3.8 ± 1.9 ml/s | Changing Amt of QOL Index [2, 5]: −1.3 ± 1.2 | Changing Rate of Total score for subjective symptoms [2, 5]: −30.5 ± 16.9% | Changing Amt of Average urinary stream rate [2, 6]: +2.1 ± 2.8 ml/s | Changing Amt of Maximum urinary stream rate [2, 6]: +6.2 ± 6.0 ml/s | Changing Amt of QOL Index [2, 6]: −3.0 ± 1.7 | Changing Rate of Total score for subjective symptoms [2, 6]: −37.4 ± 26.8% | Changing Amt of Average urinary stream rate [2, 7]: +3.8 ± 2.5 ml/s | Changing Amt of Maximum urinary stream rate [2, 7]: +7.3 ± 4.6 ml/s | Changing Amt of QOL Index [2, 7]: −2.9 ± 1.7 | Changing Rate of Total score for subjective symptoms [2, 7]: −44.6 ± 32.1% | Changing Amt of Average urinary stream rate [2, 8]: +2.0 ± 3.3 ml/s | Changing Amt of Maximum urinary stream rate [2, 8]: +3.1 ± 6.7 ml/s | Changing Amt of QOL Index [2, 8]: −1.6 ± 1.7 | Changing Rate of Total score for subjective symptoms [2, 8]: −40.9 ± 25.2% | effective rate (Degree of Improvement as a whole is more than "Useful") ([2]; after 12 weeks, decided by Guideline for Clinical Test for Urinary Disturbance): 70.0% | Changing Amt of Average urinary stream rate [2, 9]: +4.6 ± 2.2 ml/s | Changing Amt of Maximum urinary stream rate [2, 9]: +7.8 ± 4.3 ml/s | Changing Amt of QOL Index [2, 9]: −2.9 ± 1.9 | Changing Rate of Total score for subjective symptoms [2, 9]: −47.0 ± 35.6% | Changing Amt of Average urinary stream rate [2, 10]: +1.9 ± 3.6 ml/s | Changing Amt of Maximum urinary stream rate [2, 10]: +2.9 ± 7.4 ml/s | Changing Amt of QOL Index [2, 10]: −1.6 ± 1.8 | Changing Rate of Total score for subjective symptoms [2, 10]: −43.0 ± 26.5% | Overall conclusion on efficacy (total score for subjective symptom, QOL index, test on functions) ([2]; twelve-week test): confirmed to be effective as a therapeutic agent for lower urinary tract symptoms

CCOc1ccccc1OCCN[C@H](C)Cc1ccc(OC)c(S(N)(=O)=O)c1 [tamsulosin]
Clinical efficacy for the therapy of neurogenic bladder [3]: clinically effectively for the therapy of neurogenic bladder
